These results are taken from patent US6586460B1, “Heteroarotinoids containing urea or thiourea linker” (The Board of Regents for Oklahoma State University, priority 2001, dated 2003).

One data set concerns OVCAR-3. Kind of data set: Growth inhibition assay (SRB). It counts as cell-based, human. Particulars: 3 days of treatment. The source says:
(§1) To illustrate the general and useful biological activity of the heteroarotinoids described in this invention, selected compounds were screened for ability to inhibit the growth of three ovarian cancerous cell lines, namely Caov, SKOV, and OVCAR cell lines, three cervical cell lines (Cervix HPV-Wt p53, Cervix HPV-Mut p53, and Cervix HPV-Mut p53), and one vulvar (Vulvar HPV-Mut p53) cell line as shown in Tables I-III. The cell lines and the technology have been previously described [See Journal of Medicinal Chemistry, 1999, Vol. 42, pages 3602-3614 in an article entitled “Synthesis, Structure-Activity Relationships, and RAR γ-Ligand Interactions of Nitrogen Heteroarotinoids” by A. Dhar, S. Liu, J. Klucik, K. D. Berlin, M. M. Madler, S. Lu, R. T. Ivey, D. Zacheis, C. W. Brown, E. C. Nelson, P. J. Birckbichler, and D. M. Benbrook], but the general technique was slightly modified. Cultures of the cancerous cells were plated in volumes of 150 μL in 96-well microtiter plates at concentrations of 2000-4000 cells/well, depending upon the cell line used. Retinoids were added the next day at 4× the concentrations in 50 μL of media resulting in 1, 2, 3, 4, 5, 7, and 10 μM final concentrations of each retinoid. Control cultures were treated with the same volume of DMSO. After 3 days of treatment, the cell density in each well was determined by fixing the cells in trichloroacetic acid followed by staining the cytoplasmic proteins with sulforhoamine B (SRB). After rinsing, the SRB was solubilized in Tris-HCl, and the optical density of each culture was determined with a MR600 microtiter plate reader. Each experiment was performed in triplicate, and the three values of each treatment were averaged. The average OD of the treated cultures was divided by that of the control cultures treated with solvent alone. To determine the percent growth inhibition, this ratio was subtracted from 1 and multiplied by 100. Tables I, II, and III contain representative examples of the inhibition of growth by the inventive heteroarotinoids of the cancerous cell lines investigated at two independent concentrations (1 and 10 μM). As standards for comparison purposes, trans-retinoic acid (t-RA), 9-cis-retinoic acid (9-c-RA), 13-cis-retinoic acid (13-c-RA), and […] (4-HPR) were added in parallel experiments along with the heteroarotinoids and with dimethyl sulfoxide (DMSO) as the solvent. For convenience, the data in Tables II and III are duplicated and ranked according to tumor type.

Another data set has as its system SK-OV-3. Kind of data set: Growth inhibition assay (SRB). Format: cell-based. Particulars: Homo sapiens, SK-OV-3, 72 h, 3 days of treatment, read-out: Percentage of growth inhibition, SKOV−3.
Excerpt: as §1

A further data set relates to CAOV-3. Kind of data set: Growth inhibition assay (SRB). Format: cell-based. Particulars: Homo sapiens, Caov-3, 72 h, 3 days of treatment, read-out: Percentage of growth inhibition, CAOV−3.
Excerpt: as §1

As usually defined, the melting point is the temperature, or range, at which the solid turns liquid. As usually defined, the inhibition is the change of the read-out against control, counted positive when it falls. As for `COc1cc2c(cc1NC(=S)Nc1ccc([N+](=O)[O-])cc1)C(C)(C)OCC2(C)C` [heteroarotinoid 31, [(6-Methoxy-1,1,4,4-tetramethylisochroman-7-yl)amino][(4-nitrophenyl)amino]methane 1-Thione], the melting point lay within 178 to 179 °C. In addition, in the data set with OVCAR-3 (1 μM, Table II), the “Percentage of growth inhibition, OVCAR−3” value worked out at 3.88%. The inhibition at 1 µM in the data set with OVCAR-3 (Homo sapiens, OVCAR-3, 72 h, 1 μM, Table II, read-out: Percentage of growth inhibition, OVCAR−3) was 3.83%. The inhibition at 10 µM with OVCAR-3 (Homo sapiens, OVCAR-3, 72 h, 10 μM, Table III, read-out: Percentage of growth inhibition, OVCAR−3) amounted to 80.6%. Further, the inhibition at 1 µM in the data set on SK-OV-3 (1 μM, Table II) is -1.42%. In the data set on SK-OV-3 (10 μM, Table III), the inhibition at 10 µM came out at 27.4%. The inhibition at 1 µM in the data set on CAOV-3 (1 μM, Table II) came to 6.88%. For the same molecule, in the data set with CAOV-3 (10 μM, Table III), the inhibition at 10 µM is 30.8%.
